Measured values taken from PubChem BioAssay AID855 (Emory University Molecular Libraries Screening Center, 2007).
Calls of active or inactive are those of the source. How the calls were made is not given here.

target: Eukaryotic translation initiation factor 4E (Mus musculus) + Eukaryotic translation initiation factor 4 gamma 1 (Homo sapiens) (UniProt P63073+Q04637); assay: blockers of eIF4G binding by eIF4E – biochemical, TR-FRET, dose response (AID 855); details: TR-FRET 665/620 nm
Sequence (P63073 whole entry, looked up): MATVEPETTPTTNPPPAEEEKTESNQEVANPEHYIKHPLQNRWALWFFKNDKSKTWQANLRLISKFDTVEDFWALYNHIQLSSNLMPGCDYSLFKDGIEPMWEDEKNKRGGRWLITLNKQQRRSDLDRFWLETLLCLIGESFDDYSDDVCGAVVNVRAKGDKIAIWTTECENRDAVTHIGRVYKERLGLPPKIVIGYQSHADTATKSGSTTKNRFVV
Sequence (Q04637 whole entry, looked up): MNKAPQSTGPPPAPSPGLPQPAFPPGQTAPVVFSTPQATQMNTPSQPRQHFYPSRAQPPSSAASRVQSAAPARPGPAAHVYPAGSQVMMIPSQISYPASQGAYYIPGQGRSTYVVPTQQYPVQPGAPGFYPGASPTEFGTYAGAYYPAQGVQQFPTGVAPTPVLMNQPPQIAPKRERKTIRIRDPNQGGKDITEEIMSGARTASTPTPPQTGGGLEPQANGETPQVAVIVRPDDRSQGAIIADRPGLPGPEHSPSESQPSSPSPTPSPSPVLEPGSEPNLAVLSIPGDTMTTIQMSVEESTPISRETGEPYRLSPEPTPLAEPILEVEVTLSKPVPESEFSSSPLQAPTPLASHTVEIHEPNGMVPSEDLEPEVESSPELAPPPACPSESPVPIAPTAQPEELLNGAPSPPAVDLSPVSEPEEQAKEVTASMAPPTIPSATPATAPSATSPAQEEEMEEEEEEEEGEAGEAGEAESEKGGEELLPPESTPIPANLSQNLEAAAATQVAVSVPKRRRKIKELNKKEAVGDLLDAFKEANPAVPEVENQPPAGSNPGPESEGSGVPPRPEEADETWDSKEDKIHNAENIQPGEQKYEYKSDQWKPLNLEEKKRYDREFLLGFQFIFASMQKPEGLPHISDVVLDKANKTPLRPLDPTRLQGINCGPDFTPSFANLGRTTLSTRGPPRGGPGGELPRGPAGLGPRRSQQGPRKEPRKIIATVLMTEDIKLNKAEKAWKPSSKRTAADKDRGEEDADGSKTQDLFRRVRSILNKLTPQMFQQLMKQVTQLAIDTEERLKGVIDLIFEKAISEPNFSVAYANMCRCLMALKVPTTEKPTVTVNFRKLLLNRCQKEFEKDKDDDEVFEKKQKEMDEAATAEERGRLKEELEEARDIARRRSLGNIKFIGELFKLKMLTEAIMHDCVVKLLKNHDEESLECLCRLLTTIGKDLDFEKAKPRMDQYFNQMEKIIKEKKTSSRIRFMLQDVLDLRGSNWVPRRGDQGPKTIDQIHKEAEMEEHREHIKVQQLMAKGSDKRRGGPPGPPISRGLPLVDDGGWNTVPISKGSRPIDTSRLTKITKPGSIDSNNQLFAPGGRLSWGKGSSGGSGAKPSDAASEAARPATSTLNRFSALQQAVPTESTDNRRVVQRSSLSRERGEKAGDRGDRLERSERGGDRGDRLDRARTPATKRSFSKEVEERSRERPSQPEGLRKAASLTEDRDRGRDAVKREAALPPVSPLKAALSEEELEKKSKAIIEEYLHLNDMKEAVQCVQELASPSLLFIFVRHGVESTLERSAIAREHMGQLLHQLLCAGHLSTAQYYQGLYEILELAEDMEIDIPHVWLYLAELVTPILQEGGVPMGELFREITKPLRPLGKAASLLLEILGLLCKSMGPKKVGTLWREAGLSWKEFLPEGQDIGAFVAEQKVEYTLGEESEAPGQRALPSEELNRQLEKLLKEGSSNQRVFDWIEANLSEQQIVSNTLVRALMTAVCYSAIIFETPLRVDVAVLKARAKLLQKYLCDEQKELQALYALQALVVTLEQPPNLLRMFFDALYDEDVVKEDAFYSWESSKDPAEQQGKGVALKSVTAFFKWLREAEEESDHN

SMILES	IC50
O=C1CC(c2ccco2)CC(O)=C1C=Nc1cc(Cl)cc(Cl)c1 (stereo not given)	> 64 µM (inactive)

same assay, conditions: TR-FRET 665/620 nm, at 64 µM (top of the series)

SMILES	percent of control, lower = inhibition
O=C(CSCC(=O)Nc1ccc2ccccc2c1)NCc1ccccc1	inactive
CCN(CC)S(=O)(=O)c1ccc(Cl)c(C(=O)Oc2cccnc2)c1	inactive
Cc1nn(CCC#N)c2c1P(=S)(N1CCCC1)OC(c1ccc(F)cc1)=N2 (stereo not given)	inactive
Cc1[nH]n(-c2ccccc2)c(=S)c1C=Nc1cccc([N+](=O)[O-])c1	inactive
CCN=C(N/N=C/c1ccc([N+](=O)[O-])cc1)SC	inactive
O=C(NC1CCCC1)c1cnc2n(c1=O)CCS2	inactive
COc1ccc(C(=O)Nc2ccc3oc(Cc4ccc(Cl)cc4)nc3c2)cc1OC	inactive
Cc1cc(NC(=O)CSc2ccccc2)no1	inactive
CCOC(=O)c1c(NC(=O)c2cc(-c3ccc(O)cc3)on2)sc(C(C)=O)c1C	inactive
Cc1noc(C)c1CSc1nc2cc(S(=O)(=O)N3CCOCC3)ccc2o1	inactive
CCC(C(=O)NC(C)CCc1ccco1)n1nc(C)n2c(cc3occc32)c1=O (stereo not given)	inactive
CCOC(=O)c1ccccc1NC(=O)Cn1cnc2c(nnn2-c2ccc(C)cc2)c1=O	inactive
CN1CCCN(Cc2ccccc2C(F)(F)F)CC1	inactive
COc1cc(CC(=O)Nc2ccc3c(c2)CCC3)cc(OC)c1OC	inactive
CCn1c2ccccc2c2nc3cc(S(=O)(=O)N4CCOCC4)ccc3nc21	inactive
CCOC(=O)C(C)n1ncn2cccc2c1=O (stereo not given)	inactive
CCn1c(C2CC(=O)N(Cc3ccccc3)C2)nc2ccccc21 (stereo not given)	inactive
O=C(CCn1[nH]c(=O)c2ccccc2c1=O)NCCO	inactive
CCNC(=O)c1ccc(CSc2ccc(Cl)cc2)cc1	inactive
O=C(/N=C1\NC(=O)C(F)(C(F)(F)F)S1)NC1CCCCC1 (stereo not given)	inactive
O=C(OCCN1C(=O)c2cccc3c(N4CCOCC4)ccc(c23)C1=O)c1cc(Cl)cc(Cl)c1	inactive
CC(=O)Nc1ccc(S(=O)(=O)NNC(=O)COc2cccc(C)c2)cc1	inactive
O=C(Nc1nnc(C23CC4CC(CC(C4)C2)C3)s1)c1ccc(N2C(=O)CCC2=O)cc1	inactive
N#C/C(=C\c1sc(N2CCOCC2)nc1-c1ccccc1)C(=O)Nc1cccc2ccccc12	inactive
CCOc1ccc(-c2nc(=S)[nH][nH]2)cc1	inactive
C=CCNC(=O)COc1cc(C)ccc1C	inactive
O=C(N/N=C/c1ccccc1O)c1cc(=O)[nH]c2ccccc12	inactive
CC(=O)Nc1ccnc(-c2cccnc2)n1	inactive
COc1c(Cl)cc(-c2noc(C)c2C(=O)NC(C)C)cc1Cl	inactive
